The values below come from patent US6979560B1, “Eschericha bacteria overexpressing the yahn gene for feedback-insensitive amino acid production” (priority 1998, dated 2005).

Values after ≈ are worked out from the molar mass of the structure shown. Like-named read-outs stand apart in the source and are kept apart here.

What all share (type): cell-based
One assay relates to E. coli TG1/pYGGA. Nature of the assay: microbe, parasite or virus in culture. The settings on record: for MIC: Escherichia coli, TG1/PYGGA, read-out: MIC (μg/ml) for E. coli TG1, harboring the plasmid pYGGA. An excerpt: (§1) The homology of the yeaS, yfiK, yahN and yggA gene products with the lysine transporter, LysE, of Corynebacterium glutamicum (Vrljic et al., Mol. Microbiol.,22, 815-826, 1996) and RhtB protein involved in homoserine excretion, indicates the analogues function for these proteins. It is well known that the increased expression of the genes involved in antibiotic and heavy metal efflux increases the level of resistance to the drugs (Nikaido, H. J. Bacteriology, 178, 5853-5859, 1996). Therefore, the effect of the pYEAS, pYAHN, PYFIK, and pYGGA plasmids on susceptibility of the strain TG1 to some amino acids and amino acid analogues was tested. Overnight cultures of the E. coli strains TG1/pYEAS, TG1/pYAHN, TG1/pYFIK, TG1/pYGGA and of the control strains TG1/pUC21, TG1/pUC19 and TG1/pOK12 grown in M9 minimal medium with an appropriate antibiotic on a rotary shaker (10^9 cfu/ml) were diluted 1:100 in M9 minimal medium and grown for 5 h in the same medium. Then the log phase cultures thus obtained were diluted and about 10^4 alive cells were applied to well-dried test plates with M9 agar containing doubling increments of amino acids or analogues. Thus the minimum inhibition concentration (MIC) of these compounds were examined.

The next assay deals with E. coli TG1/pYFIK. Description: microbe, parasite or virus in culture. The note with it: for MIC: Escherichia coli, TG1/PYFIK, read-out: MIC (μg/ml) for E. coli TG1, harboring the plasmid pYFIK.
Source text: as §1

The subject of another assay is E. coli TG1/pYEAS. Nature of the assay: microbe, parasite or virus in culture. The settings on record: for MIC: Escherichia coli, TG1/PYEAS, read-out: MIC (μg/ml) for E. coli TG1, harboring the plasmid pYEAS.
Source text: as §1

The next assay deals with E. coli TG1/pYAHN. Nature of the assay: microbe, parasite or virus in culture. The settings on record: for MIC: Escherichia coli, TG1/PYAHN, read-out: MIC (μg/ml) for E. coli TG1, harboring the plasmid pYAHN.
Source text: as §1

Another assay has as its system E. coli TG1/pUC21. Nature of the assay: MIC of amino acids and analogues on M9 agar, control strain TG1/pUC21. The settings on record: for MIC: Escherichia coli. How it is done: Therefore, the effect of the pYEAS, pYAHN, PYFIK, and pYGGA plasmids on susceptibility of the strain TG1 to some amino acids and amino acid analogues was tested. Overnight cultures of the E. coli strains TG1/pYEAS, TG1/pYAHN, TG1/pYFIK, TG1/pYGGA and of the control strains TG1/pUC21, TG1/pUC19 and TG1/pOK12 grown in M9 minimal medium with an appropriate antibiotic on a rotary shaker (10^9 cfu/ml) were diluted 1:100 in M9 minimal medium and grown for 5 h in the same medium. Then the log phase cultures thus obtained were diluted and about 10^4 alive cells were applied to well-dried test plates with M9 agar containing doubling increments of amino acids or analogues. Thus the minimum inhibition concentration (MIC) of these compounds were examined.

Setting [1] is: E. coli TG1 harboring pUC21 (control vector), M9 agar, doubling increments, read-out: MIC (μg/ml) for E. coli TG1, harboring the plasmid pUC21.

Consider `CN(C)CC(N)C(=O)O` (racemic) [4-aza-DL-leucine], for which the MIC came to 100 µg/mL (≈ 0.757 mM) in the assay on E. coli TG1/pYGGA; 100 µg/mL (≈ 0.757 mM) with E. coli TG1/pYFIK; 100 µg/mL (≈ 0.757 mM) in the assay with E. coli TG1/pYEAS; 100 µg/mL (≈ 0.757 mM) in the assay with E. coli TG1/pYAHN; 100 µg/mL in the assay with E. coli TG1/pUC21 (setting [1]).

Turning to `NCCSC[C@H](N)C(=O)O` [AEC, S-(2-aminoethyl)-L-cysteine], the MIC with E. coli TG1/pYGGA is 200 µg/mL (≈ 1.22 mM); with E. coli TG1/pYFIK, 10 µg/mL (≈ 0.0609 mM); in the assay with E. coli TG1/pYEAS it was 5 µg/mL (≈ 0.0304 mM); in the assay on E. coli TG1/pYAHN, 5 µg/mL (≈ 0.0304 mM); in the assay with E. coli TG1/pUC21 (setting [1]) it was 5 µg/mL.

In the case of `CCC(O)C(N)C(=O)O` (stereo not drawn) [AHVA, α-amino-β-hydroxyvaleric-acid], the MIC in the assay on E. coli TG1/pYGGA amounted to 100 µg/mL (≈ 0.751 mM); with E. coli TG1/pYFIK it was 200 µg/mL (≈ 1.5 mM); in the assay on E. coli TG1/pYEAS, 100 µg/mL (≈ 0.751 mM); in the assay on E. coli TG1/pYAHN, 100 µg/mL (≈ 0.751 mM); in the assay with E. coli TG1/pUC21 (setting [1]), 100 µg/mL.

Regarding `N=C(N)NCCC[C@H](N)C(=O)O` [L-arginine], the MIC worked out at 20000 µg/mL (≈ 115 mM) in the assay with E. coli TG1/pYGGA; 10000 µg/mL (≈ 57.4 mM) in the assay with E. coli TG1/pYFIK; 10000 µg/mL (≈ 57.4 mM) with E. coli TG1/pYEAS; 10000 µg/mL (≈ 57.4 mM) in the assay with E. coli TG1/pYAHN; 10000 µg/mL in the assay with E. coli TG1/pUC21 (setting [1]).

`N[C@@H](CCC(=O)O)C(=O)[O-].[Na+]` [L-glutamate (Na salt)]: the “MIC (μg/ml) for E. coli TG1, harboring the plasmid pYGGA” value in the assay with E. coli TG1/pYGGA (E. coli TG1 harboring pYGGA (multicopy yggA), M9 agar, doubling increments) is 5000 μg/ml. Further, the “MIC (μg/ml) for E. coli TG1, harboring the plasmid pYFIK” value in the assay on E. coli TG1/pYFIK (E. coli TG1 harboring pYFIK (multicopy yfiK), M9 agar, doubling increments) was 10000 μg/ml. For the same molecule, in the assay on E. coli TG1/pYEAS (E. coli TG1 harboring pYEAS (multicopy yeaS), M9 agar, doubling increments), the “MIC (μg/ml) for E. coli TG1, harboring the plasmid pYEAS” value was determined as 20000 μg/ml. For the same molecule, the “MIC (μg/ml) for E. coli TG1, harboring the plasmid pYAHN” value with E. coli TG1/pYAHN (E. coli TG1 harboring pYAHN (multicopy yahN), M9 agar, doubling increments) turned out to be 5000 μg/ml. For the same molecule, the “MIC (μg/ml) for E. coli TG1, harboring the plasmid pUC21” value in the assay on E. coli TG1/pUC21 (E. coli TG1 harboring pUC21 (control vector), M9 agar, doubling increments) worked out at 5000 μg/ml.

In the case of `N[C@@H](Cc1c[nH]cn1)C(=O)O` [L-histidine], the MIC in the assay with E. coli TG1/pYGGA is 5000 µg/mL (≈ 32.2 mM); with E. coli TG1/pYFIK it was 10000 µg/mL (≈ 64.5 mM); in the assay with E. coli TG1/pYEAS, 30000 µg/mL (≈ 193 mM); in the assay on E. coli TG1/pYAHN it was 5000 µg/mL (≈ 32.2 mM); with E. coli TG1/pUC21 (setting [1]), 5000 µg/mL.

As for `N[C@@H](CCO)C(=O)O` [L-homoserine], the MIC turned out to be 500 µg/mL (≈ 4.2 mM) in the assay on E. coli TG1/pYGGA; 1000 µg/mL (≈ 8.39 mM) with E. coli TG1/pYFIK; 1000 µg/mL (≈ 8.39 mM) with E. coli TG1/pYEAS; 500 µg/mL (≈ 4.2 mM) with E. coli TG1/pYAHN; 500 µg/mL with E. coli TG1/pUC21 (setting [1]).

Turning to `NCCCC[C@H](N)C(=O)O` [L-lysine], the MIC with E. coli TG1/pYGGA was determined as 15000 µg/mL (≈ 103 mM); with E. coli TG1/pYFIK, 7500 µg/mL (≈ 51.3 mM); in the assay with E. coli TG1/pYEAS it was 7500 µg/mL (≈ 51.3 mM); in the assay on E. coli TG1/pYAHN it was 5000 µg/mL (≈ 34.2 mM); with E. coli TG1/pUC21 (TG1/PUC21, read-out: MIC (μg/ml) for E. coli TG1, harboring the plasmid pUC21), 5000 µg/mL.

In the case of `O=C(O)[C@@H]1CCCN1` [L-proline], the MIC is 1000 µg/mL (≈ 8.69 mM) with E. coli TG1/pYGGA; 5000 µg/mL (≈ 43.4 mM) in the assay with E. coli TG1/pYFIK; 2000 µg/mL (≈ 17.4 mM) in the assay on E. coli TG1/pYEAS; 2000 µg/mL (≈ 17.4 mM) in the assay with E. coli TG1/pYAHN; 1000 µg/mL in the assay on E. coli TG1/pUC21 (setting [1]).

For the molecule `C[C@@H](O)[C@H](N)C(=O)O` [L-threonine], the MIC in the assay with E. coli TG1/pYGGA stood at 30000 µg/mL (≈ 252 mM); in the assay on E. coli TG1/pYFIK, 40000 µg/mL (≈ 336 mM); in the assay on E. coli TG1/pYEAS, 50000 µg/mL (≈ 420 mM); with E. coli TG1/pYAHN, 30000 µg/mL (≈ 252 mM); with E. coli TG1/pUC21 (setting [1]), 30000 µg/mL.

For the molecule `CC(C)[C@H](N)C(=O)O` [L-valine], the MIC in the assay on E. coli TG1/pYGGA came out at 0.5 µg/mL (≈ 0.00427 mM); in the assay on E. coli TG1/pYFIK, 0.5 µg/mL (≈ 0.00427 mM); with E. coli TG1/pYEAS, 0.5 µg/mL (≈ 0.00427 mM); with E. coli TG1/pYAHN, 0.5 µg/mL (≈ 0.00427 mM); in the assay on E. coli TG1/pUC21 (setting [1]) it was 0.5 µg/mL.

For `CCC(N)C(=O)O` (stereo not drawn) [α-aminobutyric acid], the MIC in the assay on E. coli TG1/pYGGA was 2500 µg/mL (≈ 24.2 mM); with E. coli TG1/pYFIK it was 5000 µg/mL (≈ 48.5 mM); with E. coli TG1/pYEAS, > 10000 µg/mL; in the assay on E. coli TG1/pYAHN, 2500 µg/mL (≈ 24.2 mM); in the assay on E. coli TG1/pUC21 (setting [1]), 2500 µg/mL.
